Source: patent US20190367516A1 (Bayer Pharma Aktiengesellschaft, priority 2015, published 2019)
Read-outs that look alike come from different tables or passages of the source.

Target: T1, human M2 receptor (Homo sapiens, UniProt P08172)
T1 sequence (P08172 1-466): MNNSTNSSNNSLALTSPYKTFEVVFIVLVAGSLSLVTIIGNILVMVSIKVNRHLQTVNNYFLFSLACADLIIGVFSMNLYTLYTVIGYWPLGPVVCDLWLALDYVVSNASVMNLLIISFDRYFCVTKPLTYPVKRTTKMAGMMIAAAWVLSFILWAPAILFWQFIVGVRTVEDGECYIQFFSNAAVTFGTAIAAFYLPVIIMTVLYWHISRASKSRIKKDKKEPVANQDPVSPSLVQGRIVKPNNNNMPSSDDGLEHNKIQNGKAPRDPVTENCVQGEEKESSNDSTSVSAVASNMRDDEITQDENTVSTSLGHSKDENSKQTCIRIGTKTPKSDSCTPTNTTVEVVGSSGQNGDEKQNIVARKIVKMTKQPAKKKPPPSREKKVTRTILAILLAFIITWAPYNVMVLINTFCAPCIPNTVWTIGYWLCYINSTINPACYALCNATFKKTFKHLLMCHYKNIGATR
Settings: for Emax: read-out: Efficiency, boosting of the acetylcholine effect at EC20 acetylcholine concentration

[1] = Receptor activity EC50, M2-GIRK1/4 activation test, acetylcholine at EC20, allosteric potency, in some cases mean values from two or more determinations
[2] = Receptor activity EC50, allosteric potency at EC20 acetylcholine, M2-GIRK1/4 reporter cells, in some cases mean of two or more determinations

Compound | EC50 [1] [µM] | EC50 [2] [µM] | Emax (M2-GIRK1/4 reporter cells) [%] | Efficiency (boosting of the acetylcholine effect at EC20 acetylcholine concentration, M2-GIRK1/4 reporter cells) [%]
CN(C)c1ccc2c(=O)c(C(=O)NCc3ccc(F)cc3F)cn(-c3ccc(F)cc3F)c2n1 [Example 50, N-(2,4-Dmuorobenzyl)-1-(2,4-difluorophenyl)-7-(dimethylamino)-4-oxo-1,4-dihydro-1,8-naphthyridine-3-carboxamide] | 0.158 |  |  | 
CN(C)c1ccc2c(=O)c(C(=O)NC34CC5CC(CC(F)(C5)C3)C4)cn(-c3ccc(F)cc3F)c2n1 [Example 37, 1-(2,4-Difluorophenyl)-7-(dimethylamino)-N-(3-fluorotricyclo[3.3.1.1^3,7]dec-1-yl)-4-oxo-1,4-dihydro-1,8-naphthyridine-3-carboxamide] | 0.023 |  |  | 
O=C(NC12CC(F)(C1)C2)c1cn(-c2c(F)cc(F)cc2F)c2nc(N3C[C@@H](O)CC3=O)ccc2c1=O [Example 367, N-(3-Fluorobicyclo[1.1.1]pent-1-yl)-7-[(4S)-4-hydroxy-2-oxopyrrolidin-1-yl]-4-oxo-1-(2,4,6-trifluorophenyl)-1,4-dihydro-1,8-naphthyridine-3-carboxamide] | 0.1 |  |  | 
CC(C)(CC(F)(F)F)NC(=O)c1cn(-c2c(F)cc(F)cc2Cl)c2nc(N3C[C@@H](O)[C@H](O)C3)ccc2c1=O [Example 391, 1-(2-Chloro-4,6-difluorophenyl)-7-[(3R,4R)-3,4-dihydroxypyrrolidin-1-yl]-4-oxo-N-(4,4,4-trifluoro-2-methylbutan-2-yl)-1,4-dihydro-1,8-naphthyridine-3-carboxamide] | 0.008 |  |  | 
O=C(Nc1c(Cl)cccc1Cl)c1cn(-c2c(F)cc(F)cc2F)c2nc(N3CCNC3=O)ccc2c1=O [Example 613, N-(2,6-Dichlorophenyl)-4-oxo-7-(2-oxoimidazolidin-1-yl)-1-(2,4,6-trifluorophenyl)-1,4-dihydro-1,8-naphthyridine-3-carboxamide] |  | 0.033 | 95.5 | 
O=C(N[C@@H](C1CC1)C(F)(F)F)c1cn(-c2c(F)cc(F)cc2F)c2nc(N3CCC(F)(CO)CC3)ccc2c1=O [Example 461, N-[(1 S)-1-Cyclopropyl-2,2,2-trifluoroethyl]-7-[4-fluoro-4-(hydroxymethyl)piperidin-1-yl]-4-oxo-1-(2,4,6-trifluorophenyl)-1,4-dihydro-1,8-naphthyridine-3-carboxamide] |  | 0.039 | 89 | 
CC[C@H](NC(=O)c1cn(-c2c(F)cc(F)cc2F)c2nc(N3CC(O)C4(CC4)C3)ccc2c1=O)C(F)(F)F (single isomer, unassigned) [Example 620] |  | 0.047 | 100 | 
O=C(Nc1c(Cl)cccc1Cl)c1cn(-c2ccc(F)cc2F)c2nc(N3CC4CC4(O)C3)ccc2c1=O (racemic) [Example 597, N-(2,6-Dichlorophenyl)-1-(2,4-difluorophenyl)-7-[1-hydroxy-3-azabicyclo[3.1.0]hex-3-yl]-4-oxo-1,4-dihydro-1,8-naphthyridine-3-carboxamide] |  | 0.021 | 95.5 | 
COC1(C)CN(c2ccc3c(=O)c(C(=O)NC45CC(C4)C5)cn(-c4c(F)cc(F)cc4F)c3n2)C1 [Example 641, N-(Bicyclo[1.1.1]pent-1-yl)-7-(3-methoxy-3-methylazetidin-1-yl)-4-oxo-1-(2,4,6-trifluorophenyl)-1,4-dihydro-1,8-naphthyridine-3-carboxamide] |  | 0.071 | 100 | 
O=C(N[C@@H](C1CC1)C(F)(F)F)c1cn(-c2c(F)cc(F)cc2F)c2nc(N3CCOC(CO)C3)ccc2c1=O (mixture of isomers) [Example 463, N-[(1 S)-1-Cyclopropyl-2,2,2-trifluoroethyl]-7-[2-(hydroxymethyl)morpholin-4-yl]-4-oxo-1-(2,4,6-trifluorophenyl)-1,4-dihydro-1,8-naphthyridine-3-carboxamide] |  | 0.054 | 89 | 
O=C1CN(c2ccc3c(=O)c(C(=O)NC45CC6CC(CC(C6)C4)C5)cn(-c4ccc(F)cc4F)c3n2)CCN1 [Example 18, 1-(2,4-Difluorophenyl)-4-oxo-7-(3-oxopiperazin-1-yl)-N-(tricyclo[3.3.1.1^3,7]dec-1-yl)-1,4-dihydro-1,8-naphthyridine-3-carboxamide] | 0.117 |  |  | 
CN(C)c1ccc2c(=O)c(C(=O)NC3(C)CCCCC3)cn(-c3ccc(F)cc3Cl)c2n1 [Example 156, 1-(2-Chloro-4-fluorophenyl)-7-(dimethylamino)-N-(1-methylcyclohexyl)-4-oxo-1,4-dihydro-1,8-naphthyridine-3-carboxamide] | 0.086 |  |  | 

More lines, now with the values ahead:

EC50 [1] [µM] | EC50 [2] [µM] | Emax (M2-GIRK1/4 reporter cells) [%] | Efficiency (boosting of the acetylcholine effect at EC20 acetylcholine concentration, M2-GIRK1/4 reporter cells) [%] | Compound
 | 0.011 |  | 100.0 | CCC(COC(F)(F)F)NC(=O)c1cn(-c2c(F)cc(F)cc2F)c2nc(N3CCNC3=O)ccc2c1=O (racemic) [Example 610, 4-Oxo-7-(2-oxoimidazolidin-1-yl)-N-[1-(trifluoromethoxy)butan-2-yl]-1-(2,4,6-trifluorophenyl)-1,4-dihydro-1,8-naphthyridine-3-carboxamide]
0.026 |  |  |  | CCC(NC(=O)c1cn(-c2ccc(F)cc2F)c2nc(N(C)C)ccc2c1=O)C(F)(F)F (racemic) [Example 146, rac-1-(2,4-Difluorophenyl)-7-(dimethylamino)-4-oxo-N-(1,1,1-trifluorobutan-2-yl)-1,4-dihydro-1,8-naphthyridine-3-carboxamide]
0.129 |  |  |  | CC(C)(NC(=O)c1cn(-c2ccc(F)cc2F)c2nc(N3CCNC3=O)ccc2c1=O)c1c(F)cccc1F [Example 184, 1-(2,4-Difluorophenyl)-N-[2-(2,6-difluorophenyl)propan-2-yl]-4-oxo-7-(2-oxoimidazolidin-1-yl)-1,4-dihydro-1,8-naphthyridine-3-carboxamide]
 | 0.026 | 100 |  | O=C(N[C@@H](C1CC1)C(F)(F)F)c1cn(-c2c(F)cc(F)cc2F)c2nc(N3CC[C@@H](O)C3=O)ccc2c1=O [Example 466, N-[(1 S)-1-Cyclopropyl-2,2,2-trifluoroethyl]-7-[(3R)-3-hydroxy-2-oxopyrrolidin-1-yl]-4-oxo-1-(2,4,6-trifluorophenyl)-1,4-dihydro-1,8-naphthyridine-3-carboxamide]
0.203 |  |  |  | CC(COC(F)(F)F)NC(=O)c1cn(-c2ccc(F)cc2F)c2nc(N3CCCC3=O)ccc2c1=O (racemic) [Example 230, rac-1-(2,4-Difluorophenyl)-4-oxo-7-(2-oxopyrrolidin-1-yl)-N-[1-(trifluoromethoxy)propan-2-yl]-1,4-dihydro-1,8-naphthyridine-3-carboxamide]
0.019 |  |  |  | CC(C)C[C@@H](NC(=O)c1cn(-c2ccc(F)cc2F)c2nc(N(C)C)ccc2c1=O)C(F)(F)F [Example 133, 1-(2,4-Difluorophenyl)-7-(dimethylamino)-4-oxo-N-[(2R)-1,1,1-trifluoro-4-methylpentan-2-yl]-1,4-dihydro-1,8-naphthyridine-3-carboxamide]
 | 0.004 | 95 |  | CC(NC(=O)c1cn(-c2c(F)cc(F)cc2F)c2nc(N3C[C@@H](C)NC3=O)ccc2c1=O)C(F)(F)C(F)(F)F (single isomer, unassigned) [Example 459]
 | 0.003 | 96.7 |  | CCC(NC(=O)c1cn(-c2c(F)cc(F)cc2F)c2nc(N3C[C@@H](O)CC3=O)ccc2c1=O)C(F)(F)C(F)(F)F (mixture of isomers) [Example 519, 7-[(4S)-4-Hydroxy-2-oxopyrrolidin-1-yl]-4-oxo-N-[1,1,1,2,2-pentafluoropentan-3-yl]-1-(2,4,6-trifluorophenyl)-1,4-dihydro-1,8-naphthyridine-3-carboxamide]
 | 0.023 | 90 |  | O=C(NC(C(F)(F)F)C(F)(F)F)c1cn(-c2c(F)cc(F)cc2F)c2nc(N3CCNC3=O)ccc2c1=O [Example 599, N-(1,1,1,3,3,3-Hexafluoropropan-2-yl)-4-oxo-7-(2-oxoimidazolidin-1-yl)-1-(2,4,6-trifluorophenyl)-1,4-dihydro-1,8-naphthyridine-3-carboxamide]
0.024 |  |  |  | CC(C)C(NC(=O)c1cn(-c2ccc(F)cc2F)c2nc(N(C)CCF)ccc2c1=O)C(F)(F)F (centres unmarked) [Example 108, 1-(2,4-Difluorophenyl)-7-[(2-fluoroethyl)(methyl)amino]-4-oxo-N-[1,1,1-trifluoro-3-methylbutan-2-yl]-1,4-dihydro-1,8-naphthyridine-3-carboxamide]
0.054 |  |  |  | O=C(NC(c1c(F)cccc1F)C(F)(F)F)c1cn(-c2ccc(F)cc2F)c2nc(N3CC[C@@H](O)C3=O)ccc2c1=O (stereo partly drawn) [Example 300, 1-(2,4-Difluorophenyl)-N-[1-(2,6-difluorophenyl)-2,2,2-trifluoroethyl]-7-[(3R)-3-hydroxy-2-oxopyrrolidin-1-yl]-4-oxo-1,4-dihydro-1,8-naphthyridine-3-carboxamide]
 | 0.02 | 100 |  | CCC(COC(F)(F)F)NC(=O)c1cn(-c2c(F)cc(F)cc2F)c2nc(N3C[C@@H](O)[C@H](O)C3)ccc2c1=O (single isomer, unassigned) [Example 577]
 | 0.007 | 100 |  | CC(C)(CC(F)(F)F)NC(=O)c1cn(-c2c(F)cc(F)cc2Cl)c2nc(N3C[C@@H](O)CC3=O)ccc2c1=O [Example 395, 1-(2-Chloro-4,6-difluorophenyl)-7-[(4S)-4-hydroxy-2-oxopyrrolidin-1-yl]-4-oxo-N-(4,4,4-trifluoro-2-methylbutan-2-yl)-1,4-dihydro-1,8-naphthyridine-3-carboxamide]
